From ChEMBL document CHEMBL5576081, “Exploring the structural activity relationship of the Osimertinib: A covalent inhibitor of double mutant EGFRL858R/T790M tyrosine kinase for the treatment of Non-Small Cell Lung Cancer (NSCLC)” (Bioorg Med Chem, 2024) come the findings set out here.

The test system of assay [1] is NCI-H1975. Nature of the assay: Antiproliferative activity against human NCI-H1975 cells harboring EGFR L858R/T790M double mutant assessed as reduction in cell growth incubated for 72 hrs by CellTiter-Glo luminescent assay. The class given is functional, cell-based. As to conditions: NCI-H1975, 72 h. For orientation: ATP-based viability assays read luminescence as a measure of living cells.

In assay [2] the test system is PC-9. In words: Antiproliferative activity against human PC-9 cells harboring EGFR Del19 mutant assessed as inhibition of cell growth incubated for 72 hrs by CCK8 assay. As to conditions: PC-9, 72 h. The class given is functional, cell-based.
The test system of assay [3] is LoVo. In words: Antiproliferative activity against human LoVo cells harboring wild-type EGFR assessed as reduction in cell growth incubated for 72 hrs by CCK8 assay. The class given is functional, cell-based.
Assay [4] deals with LoVo. Nature of the assay: Antiproliferative activity against human LoVo cells harboring wild-type EGFR assessed as reduction in cell viability. The class given is functional, cell-based.
Assay [5] relates to PC-9. In words: Antiproliferative activity against human PC-9 cells harboring EGFR del19 mutant assessed as cell growth inhibition incubated for 72 hrs by CellTiter Glo assay. The class given is functional, cell-based. As to conditions: PC-9, 72 h.
In assay [6] the test system is NCI-H1975. Nature of the assay: Cytotoxicity against human NCI-H1975 cells assessed as reduction in cell viability incubated for 48 hrs by CCK-8 assay. Particulars: NCI-H1975, 48 h. The format is functional, cell-based.
Assay [7] concerns PC-9. Nature of the assay: Cytotoxicity against human PC-9 cells assessed as reduction in cell viability incubated for 48 hrs by CCK-8 assay. The format is functional, cell-based. As to conditions: PC-9, 48 h. A general note: Tetrazolium assays rely on reduction of a dye to a coloured formazan, in cell work by metabolically active cells.
Assay [8] relates to NCI-H292. Nature of the assay: Cytotoxicity against human NCI-H292 cells assessed as reduction in cell viability incubated for 48 hrs by CCK-8 assay. The format is functional, cell-based. Particulars: NCI-H292, 48 h.
The subject of assay [9] is NCI-H1975. In words: Antiproliferative activity against human NCI-H1975 cells. The format is functional, cell-based.
The target in assay [10] is T1, Epidermal growth factor receptor (Homo sapiens, UniProt P00533, L858R/T790M). Nature of the assay: Inhibition of EGFR L858R/T790M (unknown origin).
In assay [11] the target is T1, Epidermal growth factor receptor. In words: Inhibition of EGFR L858R/T790M mutant (unknown origin).
The target of assay [12] is Epidermal growth factor receptor (Homo sapiens, UniProt P00533). In words: Inhibition of wild-type EGFR (unknown origin) using TK as substrate incubated for 120 mins in presence of ATP by HTRF assay.
Assay [13] deals with NCI-H1975. In words: Antiproliferative activity against human NCI-H1975 cells assessed as reduction in cell viability incubated for 72 hrs by Cell-titer glo assay. The format is functional, cell-based. As to conditions: NCI-H1975, 72 h.
For assay [14], the system named is A-431. Nature of the assay: Antiproliferative activity against human A-431 cells assessed as reduction in cell viability incubated for 48 hrs by MTT assay. The format is functional, cell-based. Particulars: A-431, 48 h.

T1 sequence (P00533 25-1210 T790M/L858R limits assumed): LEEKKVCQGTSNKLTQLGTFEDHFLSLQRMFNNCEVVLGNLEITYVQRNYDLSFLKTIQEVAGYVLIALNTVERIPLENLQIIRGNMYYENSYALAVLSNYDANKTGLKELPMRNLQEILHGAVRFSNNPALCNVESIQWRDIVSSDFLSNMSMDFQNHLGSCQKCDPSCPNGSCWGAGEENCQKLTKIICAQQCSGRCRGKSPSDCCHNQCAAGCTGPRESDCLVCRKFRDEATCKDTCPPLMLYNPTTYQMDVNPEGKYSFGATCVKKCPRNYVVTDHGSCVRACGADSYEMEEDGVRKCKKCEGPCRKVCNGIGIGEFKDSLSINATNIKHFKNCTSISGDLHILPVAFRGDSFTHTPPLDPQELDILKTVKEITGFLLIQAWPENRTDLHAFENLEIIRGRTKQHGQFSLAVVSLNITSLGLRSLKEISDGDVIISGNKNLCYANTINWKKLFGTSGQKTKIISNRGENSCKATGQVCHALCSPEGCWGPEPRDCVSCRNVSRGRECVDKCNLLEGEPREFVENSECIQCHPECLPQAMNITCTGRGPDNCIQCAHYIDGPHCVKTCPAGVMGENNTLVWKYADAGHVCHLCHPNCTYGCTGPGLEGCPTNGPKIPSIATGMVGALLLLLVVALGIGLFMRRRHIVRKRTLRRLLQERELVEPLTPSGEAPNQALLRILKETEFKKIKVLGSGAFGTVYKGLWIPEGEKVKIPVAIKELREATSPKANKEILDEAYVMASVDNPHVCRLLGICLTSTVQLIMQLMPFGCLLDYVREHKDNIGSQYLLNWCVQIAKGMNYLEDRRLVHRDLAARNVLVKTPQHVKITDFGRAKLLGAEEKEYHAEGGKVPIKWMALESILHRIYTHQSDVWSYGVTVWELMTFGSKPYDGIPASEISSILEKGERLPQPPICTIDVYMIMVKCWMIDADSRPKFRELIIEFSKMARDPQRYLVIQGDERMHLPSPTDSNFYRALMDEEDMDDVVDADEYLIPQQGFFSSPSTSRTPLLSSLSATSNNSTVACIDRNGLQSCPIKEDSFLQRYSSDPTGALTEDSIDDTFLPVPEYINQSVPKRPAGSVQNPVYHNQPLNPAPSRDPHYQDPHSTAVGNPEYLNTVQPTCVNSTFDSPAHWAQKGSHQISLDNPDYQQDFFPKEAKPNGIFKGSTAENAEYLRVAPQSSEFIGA
Epidermal growth factor receptor (Homo sapiens, UniProt P00533), sequence (P00533 whole entry): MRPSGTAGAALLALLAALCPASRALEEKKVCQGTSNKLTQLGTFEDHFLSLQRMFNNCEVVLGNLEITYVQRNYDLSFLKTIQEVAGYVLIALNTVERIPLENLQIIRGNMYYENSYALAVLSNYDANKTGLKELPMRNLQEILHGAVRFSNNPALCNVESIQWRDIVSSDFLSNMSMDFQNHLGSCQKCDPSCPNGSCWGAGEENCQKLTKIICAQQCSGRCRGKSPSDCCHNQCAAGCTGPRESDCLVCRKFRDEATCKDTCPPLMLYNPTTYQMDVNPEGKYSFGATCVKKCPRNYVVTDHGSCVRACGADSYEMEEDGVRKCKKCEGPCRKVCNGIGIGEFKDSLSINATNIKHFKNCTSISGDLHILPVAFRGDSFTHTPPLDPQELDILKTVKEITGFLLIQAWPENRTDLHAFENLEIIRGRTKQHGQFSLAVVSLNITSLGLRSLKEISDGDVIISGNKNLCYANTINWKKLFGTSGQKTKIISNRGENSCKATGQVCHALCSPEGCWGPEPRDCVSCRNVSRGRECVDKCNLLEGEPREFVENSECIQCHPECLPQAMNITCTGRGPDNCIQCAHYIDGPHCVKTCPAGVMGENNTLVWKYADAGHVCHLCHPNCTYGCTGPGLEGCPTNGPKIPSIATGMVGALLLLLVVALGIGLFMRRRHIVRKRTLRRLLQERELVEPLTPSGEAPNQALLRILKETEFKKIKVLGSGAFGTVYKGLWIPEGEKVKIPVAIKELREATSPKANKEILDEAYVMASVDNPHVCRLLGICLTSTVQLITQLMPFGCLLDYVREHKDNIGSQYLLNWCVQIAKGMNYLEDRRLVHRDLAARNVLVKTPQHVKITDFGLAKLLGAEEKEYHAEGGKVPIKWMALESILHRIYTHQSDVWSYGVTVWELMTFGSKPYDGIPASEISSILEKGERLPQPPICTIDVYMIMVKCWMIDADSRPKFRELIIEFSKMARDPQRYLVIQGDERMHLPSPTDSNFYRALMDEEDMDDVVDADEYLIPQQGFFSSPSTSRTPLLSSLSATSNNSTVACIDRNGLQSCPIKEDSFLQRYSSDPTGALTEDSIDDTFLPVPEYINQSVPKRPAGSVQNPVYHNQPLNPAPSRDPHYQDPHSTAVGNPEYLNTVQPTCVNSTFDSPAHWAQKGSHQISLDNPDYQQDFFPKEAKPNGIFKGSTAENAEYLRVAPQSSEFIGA

Usually IC50 stands for the concentration that gives 50% inhibition. For the molecule `C=CC(=O)Nc1cc(Nc2ncc(Cl)c(-c3cnn4ccccc34)n2)c(OC)cc1N1CCN(C(=O)CN(C)C)CC1`, the IC50 in [1] came out at 0.016 µM; in [2] it was 0.073 µM; in assay [3] it was 10 µM.

On to `C=CC(=O)Nc1cc(Nc2ncc(Cl)c(-c3cnn4ccccc34)n2)c(OC)cc1N1CCN(C(=O)[C@H](C)N)CC1`, for which the IC50 in assay [1] worked out at 0.019 µM; in [2], 0.028 µM; in assay [3] it was 1.6 µM.

For `C=CC(=O)Nc1cc(Nc2ncc(Cl)c(-c3cnn4ccccc34)n2)c(OC)cc1N1CCN(C(=O)CNC)CC1`, the IC50 came out at 0.066 µM in assay [1], 0.156 µM in [2] and 7.5 µM in assay [3].

Regarding `C=CC(=O)Nc1cc(Nc2ncc(Cl)c(-c3cnn4ccccc34)n2)c(OC)cc1N1CCN(C(=O)[C@H](C)O)CC1`, the results for the IC50 in assay [1], in assay [2] and in assay [3] were 0.075 µM, 0.179 µM and 10.3 µM, respectively.

Consider `C=CC(=O)Nc1cc(Nc2ncc(Cl)c(-c3cnn4ccccc34)n2)c(OC)cc1N1CCN(C(=O)[C@@H](C)N)CC1`, for which the IC50 came out at 0.177 µM in [1], 0.351 µM in assay [2] and 9 µM in assay [3].

`C=CC(=O)Nc1cc(Nc2ncc(Cl)c(-c3cnn4ccccc34)n2)c(OC)cc1N1CC[C@@H](N(C)C)C1`: the IC50 was determined as 0.002 µM in assay [1], 0.016 µM in assay [2] and 3.36 µM in assay [3].

Consider `C=CC(=O)Nc1cc(Nc2ncc(Cl)c(-c3cnn4ccccc34)n2)c(OC)cc1N(C)CCN(C)C`, for which the IC50 stood at 0.0006 µM in assay [1], 0.002 µM in [2] and 0.145 µM in assay [3].

Consider `C=CC(=O)Nc1cc(Nc2ncc(C#N)c(-c3cn(C)c4ccccc34)n2)c(OC)cc1N(C)CCN(C)C`, for which the IC50 in assay [1] stood at 0.0009 µM; in [4], 0.046 µM; in assay [5], 0.002 µM.

In the case of `C=CC(=O)Nc1cc(Nc2ncc(Cl)c(-c3cn(C)c4ccccc34)n2)c(OC)cc1N(C)CCN(C)C`, the IC50 was determined as 0.002 µM in [1], 0.058 µM in assay [4] and 0.002 µM in assay [5].

Take `C=CC(=O)Nc1cc(Nc2ncc(Cl)c(-c3c[nH]c4ccccc34)n2)c(OC)cc1N(C)CCN(C)C`: the values for the IC50 in [1], in [4] and in assay [5] were 0.0002 µM, 0.011 µM and 0.0006 µM, respectively.

As to `C=CC(=O)Nc1cc(Nc2ncc(C)c(-c3cn(C)c4ccccc34)n2)c(OC)cc1N(C)CCN(C)C`, the values for the IC50 in assay [1] and in [4] were 0.001 µM and 0.071 µM, respectively.

Take `C=CC(=O)Nc1cc(Nc2nccc(-c3c[nH]c4ccccc34)n2)c(OC)cc1N(C)CCN(C)C`: the IC50 in assay [1] worked out at 0.002 µM; in assay [4] it was 0.033 µM; in [5], 0.002 µM.

Turning to `C=CC(=O)Nc1cc(Nc2nccc(-c3csc4ccccc34)n2)c(OC)cc1N1CCN(C(C)C)CC1`, the results for the IC50 in assay [6], in assay [7] and in [8] were 0.13 µM, 1.3 µM and greater than 10 µM, respectively.

For `C=CC(=O)Nc1cc(Nc2ncc(F)c(-c3csc4ccccc34)n2)c(OC)cc1N(C)CCNC(C)C`, the figures for the IC50 in [6], in [7] and in assay [8] were 0.013 µM, 0.03 µM and 3.96 µM, respectively.

With `C=CC(=O)Nc1cc(Nc2nccc(-c3cn(C)c4ccccc34)n2)c(OC)cc1N(C)CCN(C)Cc1ccc(Br)cc1`, the IC50 in [9] came out at 0.02 µM; in assay [10], 0.0081 µM.

For `C=CC(=O)Nc1cc(Nc2nccc(-c3csc4ccccc34)n2)c(OC)cc1N(C)CCN(C)C`, the IC50 in assay [11] stood at 0.00026 µM; in assay [6] it was 0.002 µM; in assay [12] it was 0.00411 µM; in assay [7], 0.004 µM; in assay [8] it was 4.4 µM.

For the molecule `C=CC(=O)Nc1cc(Nc2nccc(-c3csc4ccccc34)n2)c(OC)cc1N1CCN(CC)CC1`, the IC50 in assay [6] is 0.09 µM; in assay [7] it was 0.8 µM; in assay [8], greater than 10 µM.

Take `C=CC(=O)Nc1cc(Nc2ncc(Cl)c(-c3cn(C4CC4)c4ccccc34)n2)c(OC)cc1N(C)CCN(C)C`: the results for the IC50 in assay [13] and in assay [14] were 0.00815 µM and 0.059 µM, respectively.

Regarding `C=CC(=O)Nc1cc(Nc2nccc(-c3csc4ccccc34)n2)c(OC)cc1N(C)CCCN(C)C`, the IC50 was 0.17 µM in [6], 0.3 µM in assay [7] and 4 µM in assay [8].

`C=CC(=O)Nc1cc(Nc2nccc(-c3cn(C)c4ccccc34)n2)c(OC)cc1N(C)CCN(C)Cc1ccccc1` displayed an IC50 in assay [9] of 0.004 µM.

For the molecule `C=CC(=O)Nc1cc(Nc2nccc(-c3csc4ccccc34)n2)c(OC)cc1N1CCN(C)CC1`, the IC50 in assay [6] was 0.5 µM; in assay [7], 1.9 µM; in assay [8], greater than 10 µM.

For the molecule `C=CC(=O)Nc1cc(Nc2nccc(-c3cn(C)c4ccccc34)n2)c(OC)cc1N(C)CCN(C)C(=O)c1ccc(Br)cc1`, the IC50 in [9] was 0.03 µM; in [10] it was 0.0125 µM.

Consider `C=CCCN(C)CCN(C)c1cc(OC)c(Nc2nccc(-c3cn(C)c4ccccc34)n2)cc1NC(=O)C=C`, for which the IC50 in assay [9] and in [10] was 0.002 µM throughout.

Regarding `C=CC(=O)Nc1cc(Nc2nccc(-c3cn(C)c4ccccc34)n2)c(OC)cc1N(C)CCN(C)CC(=O)OC`, the values for the IC50 in assay [9] and in assay [10] were 0.008 µM and 0.0057 µM, respectively.

Consider `C=CC(=O)Nc1cc(Nc2nccc(-c3cn(C)c4ccccc34)n2)c(OC)cc1N(C)CCN(C)C` [OSIMERTINIB], for which the IC50 in [6] came to […]; in assay [8], 2 µM; in assay [14] it was […]; in assay [5], […].
